Laboratory results: patent US9249158B2, “Cytomegalovirus inhibitor compounds” (Boehringer Ingelheim International GmbH, priority 2012, dated 2016)
pIC50: −log10 of the molar value.

The compounds below were run against T1, purified recombinant HCMV polymerase (UL54) (Human cytomegalovirus, UniProt P08546) (assay: HCMV Polymerase LANCE TR-FRET Assay). Settings: not given.
T1 construct: made in house; host or cells: Sf21 insect cells (baculovirus)
T1 sequence (P08546 whole entry): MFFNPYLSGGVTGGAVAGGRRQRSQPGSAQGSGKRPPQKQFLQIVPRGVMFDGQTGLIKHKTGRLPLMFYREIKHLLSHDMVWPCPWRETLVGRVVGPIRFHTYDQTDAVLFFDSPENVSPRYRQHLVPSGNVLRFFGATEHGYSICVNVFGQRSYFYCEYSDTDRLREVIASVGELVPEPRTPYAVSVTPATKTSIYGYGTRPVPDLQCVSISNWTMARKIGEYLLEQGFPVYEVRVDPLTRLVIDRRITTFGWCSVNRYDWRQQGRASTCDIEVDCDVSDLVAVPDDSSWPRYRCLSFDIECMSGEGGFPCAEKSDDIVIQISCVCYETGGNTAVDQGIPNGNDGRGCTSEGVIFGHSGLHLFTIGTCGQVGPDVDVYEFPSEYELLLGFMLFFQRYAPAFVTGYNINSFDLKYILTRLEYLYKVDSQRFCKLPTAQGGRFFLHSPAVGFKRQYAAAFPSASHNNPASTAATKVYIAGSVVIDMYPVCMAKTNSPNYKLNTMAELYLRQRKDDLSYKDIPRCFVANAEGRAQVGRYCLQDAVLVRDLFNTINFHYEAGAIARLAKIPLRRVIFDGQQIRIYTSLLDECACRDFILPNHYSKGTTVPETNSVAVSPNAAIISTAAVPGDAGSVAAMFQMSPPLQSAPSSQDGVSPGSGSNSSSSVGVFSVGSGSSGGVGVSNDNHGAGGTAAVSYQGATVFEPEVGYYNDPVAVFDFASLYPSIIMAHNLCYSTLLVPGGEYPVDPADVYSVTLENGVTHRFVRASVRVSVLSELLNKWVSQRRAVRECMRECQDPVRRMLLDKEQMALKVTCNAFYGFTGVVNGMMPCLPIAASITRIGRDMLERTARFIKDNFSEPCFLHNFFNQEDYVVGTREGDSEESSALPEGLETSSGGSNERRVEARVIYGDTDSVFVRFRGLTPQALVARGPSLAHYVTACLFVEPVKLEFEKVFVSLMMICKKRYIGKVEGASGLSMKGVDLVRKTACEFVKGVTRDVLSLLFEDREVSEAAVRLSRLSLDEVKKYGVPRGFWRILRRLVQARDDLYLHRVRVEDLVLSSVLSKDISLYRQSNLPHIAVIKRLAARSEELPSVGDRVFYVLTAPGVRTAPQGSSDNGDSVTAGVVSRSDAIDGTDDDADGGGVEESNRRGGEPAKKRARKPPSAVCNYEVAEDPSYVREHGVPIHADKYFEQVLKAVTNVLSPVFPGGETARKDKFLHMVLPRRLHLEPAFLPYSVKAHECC
Format: biochemical
Protocol: The codon optimized UL54 HCMV polymerase gene for expression in insect cells is obtained from DNA 2.0 (Menlo Park, Calif.) and subcloned in 3′ of the Glutathione-S-transferase (GST) gene in a pFastBac-derived vector. Bacmids and baculoviruses are generated and expression performed in Sf21 insect cells cultured in SF900 II SFM media. Infection using the baculoviruses is performed using an MOI of 5-10 and the cells are harvested 48 h post-infection and frozen.
All purification procedures are performed at 4° C. The cell pellet from 1 L of culture (1×10^9 cells) is resuspended in 25 mL of 50 mM Tris pH 7.5, 1 mM TCEP, 0.1 mM EDTA, 150 mM NaCl, 10% Glycerol, 1 mM PMSF, 2 μg/mL Leupeptin, 2 μg/mL Antipain, 2 μg/mL Pepstatin A. The solution is homogenized using a Dounce tissue grinder. Following homogenization, the volume is increased to 40 mL followed by centrifugation at 750×g for 5 min to remove nuclei. The supernatant is then transferred and 3 cc of 50% slurry of glutathione-sepharose 4B resin is added. The mixture is incubated on a rotator for 1 h. The slurry is centrifuged at 500 g for 5 min. The supernatant is discarded and the pellet is resuspended in 10× volume of wash buffer (50 mM Tris pH 7.5, 1 mM TCEP, 0.1 mM EDTA, 150 mM NaCl, 10% Glycerol) and incubated for 5 min. The slurry is centrifuged at 500 g for 5 min and the supernatant is discarded. The wash step is performed 5 times. The elution is performed by adding 1.5 volume of elution buffer (50 mM Tris pH 7.5, 1 mM TCEP, 0.1 mM EDTA, 150 mM NaCl, 10% Glycerol, 20 mM glutathione) and incubating on a rotator for 15 min. The slurry is centrifuged at 500 g for 5 min and the supernatant is removed and kept. The elution step is performed four times. The supernatants are pooled and centrifuged at 500×g for 5 min to remove resin particles and frozen at −80° C.
The frozen protein is thawed and the NaCl concentration reduced to 37.5 mM by the addition of 3 volumes of DEAE buffer A (50 mM Tris pH 7.5, 1 mM TCEP, 0.1 mM EDTA, 10% Glycerol). The protein is loaded on a HiTrap DEAE-Sepharose μF column and eluted using a gradient with DEAE buffer B (50 mM Tris pH 7.5, 1 mM TCEP, 0.1 mM EDTA, 10% Glycerol, 1 M NaCl). UL54 eluted at 140 mM NaCl. The DEAE fractions are pooled, frozen and stored at −80° C. The protein concentration is determined by OD280 (A280=1.03 mg/mL).
This non-radiometric assay determines the enzymatic activity of purified recombinant HCMV polymerase (UL54) using a Digoxigenin-labeled oligonucleotide priming a heteropolymeric template. The enzymatic activity is determined by incorporating Biotin-dUTP in the nascent complementary strand. The signal is generated by Fluorescence Resonance Energy Transfer from the donor (Anti-Digoxigenin-Europium Chelate binding with the primer) to the acceptor Streptavidin-AlloPhycoCyanin (SA-APC) binding to the biotin of the labeled nucleotides incorporated in proximity.
Serial dilutions of the DMSO stock compound solution are performed using DMSO in columns 2-11 and 14-23. DMSO alone is present in columns 1, 12, 13 and 24. The plate is centrifuged at 200×g for 30 sec. 35 μL of compound dilution buffer (10 mM Hepes pH 7.5, 25 mM KCl, 5 mM MgCl2, 1 mM TCEP) is added to 5 μL of the diluted compound in DMSO to obtain 12.5% DMSO. 4 μL per well of the 12.5% DMSO serial dilution compound solution is added to the assay plate.
The assay conditions are the following: 10 mM HEPES pH 7.5, 25 mM KCl, 7.5 mM NaCl, 5 mM MgCl2, 0.2 mg BSA/mL, 1 mM TCEP, 1.5% glycerol, 5% DMSO, 235 nM dATP, 350 nM dCTP, 350 nM dGTP, 235 nM dTTP, 12 nM biotin-16-dUTP, 23.5 nM Dig-primer/template, 2 nM GST-UL54. The assay volume is 10 μL. […]
Cc1cc(Cl)ccc1CNC(=O)c1cc2c3c(cnc2n(CC(=O)N2CC(C)(F)C2)c1=O)nc(C)n3C [Compound 5038] gave a pIC50 of 6.85.

Same assay, conditions: 2 nM GST-UL54, 37° C. for 30 min, 5% DMSO; read-out: Example 34 IC50
Cc1nc2cnc3c(cc(C(=O)NCc4ccc(Cl)cc4)c(=O)n3CC(=O)N3CC(F)(CO)C3)c2n1C [Compound 1065] gave a pIC50 of 7.46. CCn1cnc2cnc3c(cc(C(=O)NCc4ccc(Cl)cc4)c(=O)n3CC(=O)N3CC(C)(F)C3)c21 [Compound 1004] was tested, and the pIC50 was 7.59. For COc1cc(CNC(=O)c2cc3c4c(cnc3n(CC(=O)N3CC(C)(F)C3)c2=O)nc(C)n4C)ccc1Cl [Compound 5048], the pIC50 was 6.77. In the case of CC1(C)CN(C(=O)Cn2c(=O)c(C(=O)NCc3ccc(Cl)cc3)cc3c4c(cnc32)NC(C)(C)CO4)C1 [Compound 5022], the pIC50 was 6.34. With COc1nc2c(cc(C(=O)NCc3ccc(Cl)cc3)c(=O)n2CC(=O)N2CC(C)(F)C2)c2c1nc(C)n2C [Compound 5035] the pIC50 was 6.62. In the case of CN(C)c1nc2c3cc(C(=O)NCc4ccc(Cl)cc4)c(=O)n(CC(=O)N4CC(C)(F)C4)c3ncc2n1C [Compound 2017], the pIC50 was 6.68. CN(C)Cc1nc2cnc3c(cc(C(=O)NCc4ccc(Cl)cc4)c(=O)n3CC(=O)N3CC(C)(C)C3)c2n1C [Compound 1070] was tested, and the pIC50 was 7.21. Cc1nc2c3cc(C(=O)NCc4ccc(C#N)cc4)c(=O)n(CC(=O)N4CC(C)C4)c3ncc2n1C [Compound 4003] was tested, and the pIC50 was 7.03. With Cc1cn(C)c2c1cnc1c2cc(C(=O)NCc2ccc(Cl)cc2)c(=O)n1CC(=O)N1CC(C)C1 [Compound 5007] the pIC50 was 7.19. In the case of Cc1nc2cnc3c(cc(C(=O)NCc4ccc(Cl)c(O)c4)c(=O)n3CC(=O)N3CC(C)(F)C3)c2n1C [Compound 5046], the pIC50 was 6.72. For Cn1c(-n2ccnc2)nc2cnc3c(cc(C(=O)NCc4ccc(Cl)cc4)c(=O)n3CC(=O)N3CC(C)(F)C3)c21 [Compound 1061], the pIC50 was 7.22. Compound CC1(C)CN(C(=O)Cn2c(=O)c(C(=O)NCc3ccc(Cl)cc3)cc3c4c(cnc32)-c2ccccc2CO4)C1 [Compound 5012] has a pIC50 of 6.80. In the case of CC1(F)CN(C(=O)Cn2c(=O)c(C(=O)NCc3ccc(Cl)cc3)cc3c4c(cnc32)nc2n4CCOC2)C1 [Compound 5002], the pIC50 was 7.16. In the case of Cc1nc2cnc3c(cc(C(=O)NCc4ccc(Cl)cc4)c(=O)n3CC(=O)N3CC4(C3)NCC4(F)F)c2n1C [Compound 1072], the pIC50 was 6.59. Compound Cc1nc2cnc3c(cc(C(=O)NCc4ccc(Cl)cc4)c(=O)n3CC(=O)N3CC(F)(CF)C3)c2n1C [Compound 1007] has a pIC50 of 7.32. Work on Cc1nc2cnc3c(cc(C(=O)NCc4ccc(Cl)cc4)c(=O)n3CC(=O)N3CC(C)(F)C3)c2nc1C [Compound 5037] yielded a pIC50 of 6.36. COc1nc2cnc3c(cc(C(=O)NCc4ccc(Cl)cc4)c(=O)n3CC(=O)N3CC(C)(C#N)C3)c2n1C [Compound 1074] showed a pIC50 of 7.12. CC1(F)CN(C(=O)Cn2c(=O)c(C(=O)NCc3ccc(Cl)cc3)cc3c4c(cnc32)ncn4CCO)C1 [Compound 1024] showed a pIC50 of 7.54. CC1(C)CN(C(=O)Cn2c(=O)c(C(=O)NCc3ccc(Cl)cc3)cc3c4c(cnc32)NCCN4)C1 [Compound 5021] gave a pIC50 of 6.48. For Cc1nc2cnc3c(cc(C(=O)NCc4ccc(Cl)cc4)c(=O)n3CC(=O)N3CC(C)(F)C3)c2n1C [Compound 1002], the pIC50 was 7.42. Compound Cn1c(=O)n(C)c2c3cc(C(=O)NCc4ccc(Cl)cc4)c(=O)n(CC(=O)N4CC(C)(F)C4)c3ncc21 [Compound 5006] has a pIC50 of 7.05. For COCc1nc2cnc3c(cc(C(=O)NCc4ccc(Cl)cc4)c(=O)n3CC(=O)N3CC(C)(F)C3)c2n1C [Compound 1031], the pIC50 was 7.24. Cn1c(N2CCOCC2)nc2cnc3c(cc(C(=O)NCc4ccc(Cl)cc4)c(=O)n3CC(=O)N3CC(C)(F)C3)c21 [Compound 1056] was tested, and the pIC50 was 6.96. Cn1c(N2CCCC2=O)nc2cnc3c(cc(C(=O)NCc4ccc(Cl)cc4)c(=O)n3CC(=O)N3CC(C)(F)C3)c21 [Compound 1038] gave a pIC50 of 7.11. With Cc1nc2cnc3c(cc(C(=O)NCc4ccc(Cl)cc4)c(=O)n3CC(=O)N(C)CC(C)(C)CO)c2n1C [Compound 1073] the pIC50 was 7.38. Cn1cc(-c2nc3cnc4c(cc(C(=O)NCc5ccc(Cl)cc5)c(=O)n4CC(=O)N4CC(C)(F)C4)c3n2C)cn1 [Compound 1016] gave a pIC50 of 7.13. Cc1nc2cnc3c(cc(C(=O)NCc4ccc(C#N)cc4)c(=O)n3CC(=O)N3CC(C)(F)C3)c2n1C [Compound 3001] showed a pIC50 of 6.85. Cn1cc(N2CCOc3c2cnc2c3cc(C(=O)NCc3ccc(Cl)cc3)c(=O)n2CC(=O)N2CC(C)(F)C2)cn1 [Compound 5015] showed a pIC50 of 6.70. Work on CC1(F)CN(C(=O)Cn2c(=O)c(C(=O)NCc3ccc(Cl)cc3)cc3c4nc5n(c4cnc32)CCC5)C1 [Compound 5004] yielded a pIC50 of 7.11.
